Reference: publication PMC8896685 (PLoS ONE, 2022)
Numbered stars: 1 amine (or outer) side, 2 acyl side, 3 side chain; on linkers, the order of the positions; unused ones are H or OH. Square brackets hold non-standard residues; d marks the D form. Side chains are listed from the residue outwards. Peptide text beside a SMILES is read from it. * marks the point of attachment. C18 diacid = O=C(O)CCCCCCCCCCCCCCCCC(=O)*; γGlu = O=C(O)[C@H](CCC(=O)[*:2])N[*:1]; Ac4c = NC1(C(=O)O)CCC1; AEEA = NCCOCCOCC(=O)O; Aib = CC(C)(N)C(=O)O

Columns and labels:
[1] = target: T1, Mouse GCGR (Mus musculus, UniProt Q61606); experiment: Receptor potency, CRE-luciferase functional assay in BHK cells; format: cell-based; conditions: Mouse receptors, whole BHK cells, 3 h 37°C, value (95% CI)
T1 construct: a plasmid encoding either the glucagon receptor or the GLP-1 receptor from the relevant species; expressed in transfected cells
T1 sequence (Q61606 27-485): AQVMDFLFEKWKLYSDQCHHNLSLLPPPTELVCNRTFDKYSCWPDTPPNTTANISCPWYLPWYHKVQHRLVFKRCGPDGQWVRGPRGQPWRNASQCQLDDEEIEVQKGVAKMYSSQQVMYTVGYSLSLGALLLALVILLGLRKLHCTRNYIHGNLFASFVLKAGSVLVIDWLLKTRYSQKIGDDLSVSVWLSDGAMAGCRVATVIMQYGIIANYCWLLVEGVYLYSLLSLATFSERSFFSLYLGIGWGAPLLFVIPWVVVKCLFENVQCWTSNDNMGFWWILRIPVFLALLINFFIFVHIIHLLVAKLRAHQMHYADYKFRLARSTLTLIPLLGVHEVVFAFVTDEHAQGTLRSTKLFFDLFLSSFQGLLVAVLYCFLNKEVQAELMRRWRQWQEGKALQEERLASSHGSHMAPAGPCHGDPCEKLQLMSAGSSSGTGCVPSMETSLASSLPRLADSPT
Protocol: The binding assay was performed on cell membranes in the presence of 1% (v/v) species-specific heparin-treated pooled plasma (Bioreclamation IVT, Westbury, NY) diluted in assay buffer (50 mM HEPES supplemented with 5 mM EGTA, 5 mM MgCl2, and 0.005% (v/v) Tween 20, pH7.4). […] Cells stably expressing an individual receptor of interest were grown at 5% CO2, 37°C in DMEM (supplemented with 10% FCS, 0.5 mg/ml G418 and 0.3 mg/ml hygromycin). Membrane preparations were made from cells harvested at approximately 80% confluence, washed and homogenized in 20 mM HEPES with 0.1 mM EDTA, pH 7.4. Protein concentration was determined, and the membranes were stored at -80°C until use. The membrane binding assay was performed in a 96-well OptiPlate (PerkinElmer) in a total volume of 200 μl. Test compounds were dissolved in 80% DMSO and further diluted in assay buffer. 50 μl of diluted plasma was added to the assay plate wells followed by addition of test compounds (25 μl), cell membranes (50 μl, 0.06 mg/ml), SPA beads (20 mg/ml in assay buffer) and radioligand (60,000 cpm/well, corresponding to 0.06 nM; 2200 Ci/mmol. Each assay plate was incubated for 2 h at 30°C, centrifuged at 1500 rpm for 10 minutes and counted in a TopCount NXT instrument (PerkinElmer).
Functional assays were performed on whole cells in the absence or presence of 100% species-specific heparin-treated pooled plasma (Bioreclamation IVT). […] The cells were cultured with DMEM (supplemented with GlutaMAX, 10% FBS, 0.5 mg/ml G418 and 0.3 mg/ml hygromycin) at 5% CO2 and 37°C. At approximately 80–90% confluence, cells were washed with PBS and harvested with Versene (Life Technologies, Carlsbad, CA). The cells were counted and plated into 96-well microtiter plates coated with poly-D-Lys (Corning BioCoat) with 5,000 cells/well and thereafter incubated overnight in growth media. The next day the media was changed to assay buffer (DMEM without phenol red, supplemented with GlutaMAX, 10 mM HEPES, 1% ovalbumin and 0.1% Pluronic F-68) or to 100% plasma. In the absence of plasma, compounds were diluted in assay buffer. In assays tested with plasma, compounds were diluted in pure plasma. Buffer was removed from the plates and 50 μl of test compound dilutions was added to the plates followed by 50 μl of plasma or the same buffer used for compound dilution. The assay plates were incubated for 3 h in a 5% CO2 incubator at 37°C. The plates were then transferred to room temperature for 15 min and 100 μl Steadylite Plus reagent (PerkinElmer) was added to each well. The plates were shaken for 30 min at room temperature while protected from light after which luminescence was measured.
For the receptor binding assays, logIC50 values were calculated using non-linear regression analysis. The error estimation was reported as the 95% confidence interval. […] The calculations were performed in GraphPad Prism 6.4 (GraphPad, San Diego, CA) and error estimation was expressed as the 95% confidence interval. […] Averages, error estimation, ratios and plasma shifts were all calculated on logIC50 or logEC50 values and transformed to the anti-log values for reporting purposes.

[2] = test system: DIO mice; experiment: Subchronic effect on body weight, body composition and food intake in DIO mice; format: in vivo, mouse
From the text: Male C57Bl/6J mice were purchased from Jackson Lab (Bar Harbour, ME) or Taconic, (Denmark). Male Sprague Dawley rats were purchased from Taconic (Denmark). Lean animals were fed regular chow diet (Altromin 1324, Brogaarden, Denmark). Obese animals were fed a high-fat diet, 45% kcal from fat (D12492, Research Diets, New Brunswick, NJ) from the age of 4–6 weeks in order to obtain a diet induced obese (DIO) phenotype. Animals were housed under temperature and humidity-controlled conditions in a 12:12 hr light:dark cycle (lights on at 6 a.m.). Rats were housed three per cage during high fat feeding and were single housed five weeks prior to study. Mice were single housed, two per cage, with a partitioning wall where possible. All animals had ad libitum access to diet and water, except when fasted prior to experimental procedures. Animals were acclimatized to study conditions (energy expenditure cages, daily mock handling etc) at least one week prior to first dose. […] At the time of study, animals were 20–30 weeks old with a body weight of 45–50 g (DIO mice) or approximately 600 g (DIO rats).
DIO mice received s.c. injections once daily for 4–5 weeks. Animals were dosed at different times of day to allow for assessment of glucose tolerance and other metabolic parameters at same time of day but at different time points in relation to dosing. […] Body composition was assessed in conscious animals by Magnetic Resonance (MR) scanning prior to initiation of treatment and at the end of the treatment period. Steady-state plasma parameters were assessed in non-fasted animals. Additional DIO mice (n = 4) were included for verification of 24-h peptide exposure in steady state. The mice received s.c. doses daily for 2 weeks (13 days) with 3 nmol/kg NN1177; 5 nmol/kg NN1151 or 5 nmol/kg NN1359, where after plasma sampled after t = 5 h (NN1177) or 6 h (NN1151, NN1359), 10 h (all co-agonists) and 24 h (all co-agonists) post-dosing was analysed for exposure.
Analogues were tested for subchronic effect in two different set-ups. […] The Cmax and Cmin animals were included in separate treatment groups and evaluated head-to-head for glucose tolerance and additional metabolic parameters at the end of the treatment period. […] IPGTT was performed as described above, but additionally blood was sampled from vena facialis of conscious animals at t = 210 min relative to the administration of glucose for exposure analysis.
IPGTT was performed as described above.
All in vivo data are presented as mean ±SEM. […] For the comparison of NN1177, NN1151 and NN1359 on glucose tolerance, vehicle-subtracted values were used to enable comparison across studies.

[3] = in vivo; conditions: rat, iv
Protocol: Compound exposure was measured by Luminescence Oxygen Channeling Immunoassay (LOCI). […] The three reactants were combined with the analyte and formed a two-sited immuno-complex. Illumination of the complex released singlet oxygen […] from the donor beads. They were channeled into the acceptor beads and triggered a chemiluminescence response which was measured in an EnVision plate reader (PerkinElmer). The amount of light was proportional to the concentration of the analyte. As calibrators, a dilution line of the relevant analyte in rat/mouse plasma was included.
At t=0, 5 min, 10 min, 30 min, 2 h, 4 h, 8 h, 12 h, 24 h, 32 h, 48 h, 56 h, and 72 h post dosing, plasma was sampled from the sublingual plexus for analysis of plasma exposure measured by LOCI.
Plasma concentration-time profiles were analysed using non-compartmental analysis (NCA) using Phoenix WinNonlin Professional 6.3 (Pharsight, Mountain View, CA, US). Calculations were performed using full concentration-time profile values or sparse sampling concentration-time values as appropriate.

[4] = GCGR EC50, pM (95% CI) 100% plasma, 100% species-specific plasma

In the case of `CC(C)C[C@H](NC(=O)[C@H](CC(C)C)NC(=O)[C@H](Cc1c[nH]c2ccccc12)NC(=O)[C@H](CCC(N)=O)NC(=O)[C@@H](NC(=O)[C@H](Cc1ccccc1)NC(=O)[C@H](CCC(=O)O)NC(=O)[C@H](CCCNC(=N)N)NC(=O)[C@H](C)NC(=O)[C@H](C)NC(=O)[C@H](CCCNC(=N)N)NC(=O)[C@H](CO)NC(=O)[C@H](CC(=O)O)NC(=O)[C@H](CC(C)C)NC(=O)[C@H](Cc1ccc(O)cc1)NC(=O)[C@H](CCCCN)NC(=O)[C@H](CO)NC(=O)[C@H](CC(C)C)NC(=O)[C@H](CC(=O)O)NC(=O)[C@H](CO)NC(=O)[C@@H](NC(=O)[C@H](Cc1ccccc1)NC(=O)[C@@H](NC(=O)CNC(=O)[C@H](CCC(=O)O)NC(=O)C(C)(C)NC(=O)[C@@H](N)Cc1c[nH]cn1)[C@@H](C)O)[C@@H](C)O)C(C)C)C(=O)N[C@@H](CC(N)=O)C(=O)N[C@@H](CCCCNC(=O)CC[C@H](NC(=O)CC[C@H](NC(=O)COCCOCCNC(=O)COCCOCCNC(=O)CC[C@H](NC(=O)CCCCCCCCCCCCCCCCC(=O)O)C(=O)O)C(=O)O)C(=O)O)C(N)=O` [GLP-1 reference] (H-H[Aib]EGTFTSDLSKYLDSRAAREFVQWLLNK([γGlu-γGlu-AEEA-AEEA-γGlu-C18 diacid])-NH2), the EC50 [1, 4] is reported as 442000 pM and the Body weight reduction ([2]; 5 nmol/kg s.c. once daily, 4–5 weeks, p<0.001) is reported as 10%-17%.

In the case of `CC(C)C[C@H](NC(=O)[C@H](CC(=O)O)NC(=O)[C@H](CC(C)C)NC(=O)[C@H](Cc1ccc(O)cc1)NC(=O)[C@H](CCCCN)NC(=O)[C@H](CO)NC(=O)[C@H](CC(C)C)NC(=O)[C@H](CC(=O)O)NC(=O)[C@H](CO)NC(=O)[C@@H](NC(=O)[C@H](Cc1ccccc1)NC(=O)[C@@H](NC(=O)CNC(=O)[C@H](CCC(N)=O)NC(=O)C1(NC(=O)[C@@H](N)Cc2c[nH]cn2)CCC1)[C@@H](C)O)[C@@H](C)O)C(=O)N[C@@H](CCCNC(=N)N)C(=O)N[C@@H](CCCNC(=N)N)C(=O)N[C@@H](C)C(=O)N[C@@H](CCCNC(=N)N)C(=O)N[C@@H](CC(=O)O)C(=O)N[C@@H](Cc1ccccc1)C(=O)N[C@H](C(=O)N[C@@H](CCC(N)=O)C(=O)N[C@@H](Cc1c[nH]c2ccccc12)C(=O)N[C@@H](CC(C)C)C(=O)N[C@@H](CC(C)C)C(=O)N[C@@H](CCCCNC(=O)CC[C@H](NC(=O)CC[C@H](NC(=O)COCCOCCNC(=O)COCCOCCNC(=O)CC[C@H](NC(=O)CC[C@H](NC(=O)CCCCCCCCCCCCCCCCC(=O)O)C(=O)O)C(=O)O)C(=O)O)C(=O)O)C(=O)N[C@H](C(N)=O)[C@@H](C)O)C(C)C` [NN1151] (H-H[Ac4c]QGTFTSDLSKYLDLRRARDFVQWLLK([γGlu-γGlu-AEEA-AEEA-γGlu-γGlu-C18 diacid])T-NH2), the EC50 [1, 4] is reported as 60.3 pM, the “Effect on body weight” value ([2]; 1 nmol/kg s.c. once daily, 4 weeks) is reported as “No effect” and the “Effect on body weight / tolerated weight loss” value ([2]; 10 and 30 nmol/kg s.c. once daily, maximum ethically tolerated weight loss reached) is reported as “majority of mice had to be terminated prematurely”. It also gave a half-life [3] of 4 h.

For `CC(C)C[C@H](NC(=O)[C@H](Cc1ccc(O)cc1)NC(=O)[C@H](CCCCN)NC(=O)[C@H](CO)NC(=O)[C@H](CC(C)C)NC(=O)[C@H](CC(=O)O)NC(=O)[C@H](CO)NC(=O)[C@@H](NC(=O)[C@H](Cc1ccccc1)NC(=O)[C@@H](NC(=O)CNC(=O)[C@H](CCC(N)=O)NC(=O)C(C)(C)NC(=O)[C@@H](N)Cc1c[nH]cn1)[C@@H](C)O)[C@@H](C)O)C(=O)N[C@@H](CCC(=O)O)C(=O)N[C@@H](CO)C(=O)N[C@@H](CCCCN)C(=O)N[C@@H](CCCNC(=N)N)C(=O)N[C@@H](C)C(=O)N[C@@H](CCCNC(=N)N)C(=O)N[C@@H](CCC(=O)O)C(=O)N[C@@H](Cc1ccccc1)C(=O)N[C@H](C(=O)N[C@@H](CCC(N)=O)C(=O)N[C@@H](Cc1c[nH]c2ccccc12)C(=O)N[C@@H](CC(C)C)C(=O)N[C@@H](CC(C)C)C(=O)N[C@@H](CCCCNC(=O)CC[C@H](NC(=O)CC[C@H](NC(=O)[C@H](CO)NC(=O)[C@H](CCC(=O)O)NC(=O)[C@H](CO)NC(=O)CC[C@H](NC(=O)CC[C@H](NC(=O)CCCCCCCCCCCCCCCCC(=O)O)C(=O)O)C(=O)O)C(=O)O)C(=O)O)C(=O)N[C@H](C(N)=O)[C@@H](C)O)C(C)C` [NN1177] (H-H[Aib]QGTFTSDLSKYLESKRAREFVQWLLK([γGlu-γGlu-Ser-Glu-Ser-γGlu-γGlu-C18 diacid])T-NH2), the EC50 ([1]; GCGR EC50, pM (95% CI) 0% plasma, 0% plasma) was 1.96 pM, the EC50 [1, 4] was 103 pM and the Body weight reduction ([2]; 3–5 nmol/kg s.c. once daily, 5 weeks) was 22–33%. For the same compound, the half-life [3] was 8 h.
